Experimental data taken from US20240325544A1, “CATIONIC LIPID FOR COVALENT MODIFICATION OF PEPTIDES” (PharmalN Corporation, priority 2023, published 2024).
Bridge positions count the residues as written; N and C are the ends. Square brackets hold non-standard residues; d marks the D form. Peptide text beside a SMILES is read from it. * marks the point of attachment. Stearoyl = CCCCCCCCCCCCCCCCCC(=O)*; Palmitoyl = CCCCCCCCCCCCCCCC(=O)*; Dab = NCC[C@H](N)C(=O)O; Hexanoyl = CCCCCC(=O)*

How the values were obtained:
Sprague Dawley rats [1] = experiment: Dose-range finding of cationic alkyl modified CNP, subcutaneous bolus in rats (Table 2)
Procedure: Animal care and treatment: Male Sprague Dawley rats aged 8 to 10 weeks (Charles River, Hollister, CA) were housed in groups of two (n=3/group) in disposable polypropylene cages with rodent cob bedding at the PharmaIN animal facility. Animals had ad libitum access to food (LabDiet Pico Rodent #5053; Animal Specialties, Woodburn, OR) and water. Temperature (68-74° F.) and humidity (30-60%) were maintained within a controlled range, and a 12-hour light/dark cycle was used. […] Animals were monitored closely during the first 4 hours following injection, then hourly throughout the rest of the day for any signs of swelling or discoloration (dilatory side effect), lethargy (side effect), ataxia (ataxia is used as a marker of toxicity). Rats were allowed a 1-week wash-out period between bolus doses. Following final observations, animals were humanely euthanized through CO2 asphyxiation.

cGMP = experiment: Plasma cGMP after SC bolus of natriuretic peptides in CD-1 mice (pharmacodynamics, Table 3); type: in vivo; conditions: SC bolus 1.0 mg/kg (≤0.45 μmol/kg), baseline 10 +/−8 pmol/ml, n = 3-5
Procedure: The test articles were formulated or dissolved in sterile water for injection on the same day of administration. […] Blood samples were collected via retro-orbital bleed at 2- and 6-hours post-injection, with two bleedings per animal at two different timepoints. The samples were collected in K2EDTA tubes, processed by centrifugation (2000×g; 15 m 4 eC within 30 minutes after collection), and the resulting plasma samples were stored at −80° C. Biochemical analysis: The plasma concentration of the respective natriuretic peptide was analyzed using commercially available ELISA kits from Phoenix Pharmaceuticals (Burlingame, CA): ANP ELISA (cat #EKE-005-06), BNP ELISA (cat #EKE-011-03), and CNP ELISA (cat #EKE-012-03). […] Plasma cGMP was analyzed using a commercially available kit from Abcam (ab133052, Waltham, MA).

Sprague Dawley rats [2] = experiment: Clinically observable adverse effects of cationic alkyl moieties after subcutaneous bolus in rats (Table 1); type: in vivo, rat; conditions: tested at 3.0, 5.0 or 10 μmol/kg
Procedure: Drug administration and observation: Each rat received a subcutaneous injection of a cationic alkyl modifier (SEQ ID NO: 1-22; listed in Table 1 below) in a buffer of sterile water adjusted to a pH between 4.5-5, with an initial bolus dose of 5.0 μmol/kg and an injection volume of 1.0 mL/kg. The bolus dose level was adjusted based on observations, and animals were monitored closely for lethargy, ataxia, swelling, or discoloration during the first 4 hours post-injection and hourly thereafter. As used herein, “ataxia” means a clinical sign observed as poor muscle control that causes clumsy voluntary movements. It may cause difficulty with mobility, coordination, and eye movements. As used herein, “lethargy” means a clinical sign observed as inability or unwillingness to resume normal activity characterized by exploring and alertness. Lethargic rats are easily observed by displaying little to no activity and/or unwillingness to explore around, half closed eyes, and hunched posture. As used herein, “swelling” means a clinical sign observed as the enlargement or engorgement of body parts with blood or fluid and is associated with visible redness (discoloration). If no swelling occurred, dose level was increased to 10 μmol/kg; if swelling was present, bolus dose level was decreased to 3.0 μmol/kg. A wash-out period of 1 week was allowed between bolus doses, and animals were humanely euthanized through CO2 asphyxiation after final observation.

| SMILES | Lethargy* in n = 3 (Sprague Dawley rats [1]; up to 10 mg/kg) [mg/kg] | Swelling and/or Discoloration in n = 3 (Sprague Dawley rats [1]; up to 10 mg/kg) [mg/kg] | Lethargy* in n = 3 (Sprague Dawley rats [1]; value in parentheses) | Swelling and/or Discoloration in n = 3 (Sprague Dawley rats [1]; value in parentheses) | Ataxia** in n = 3 (Sprague Dawley rats [1]; up to 10 mg/kg) [mg/kg] | Ataxia** in n = 3 (Sprague Dawley rats [1]; value in parentheses) | Plasma concentration of cGMP, 2 hr (cGMP; 2 hr) [pmol/mL] | Plasma concentration of cGMP, 6 hr (cGMP; 6 hr) [pmol/mL] | Ataxia** in n = 3 (Sprague Dawley rats [2]; ataxia is bolus dose limiting toxicity) [µmol/kg] | Swelling and/or Discoloration in n = 3 (Sprague Dawley rats [2]; dose at which sign was seen) [µmol/kg] | Lethargy* in n = 3 (Sprague Dawley rats [2]; lethargy is considered maximum tolerated bolus dose) [µmol/kg] |
| --- | --- | --- | --- | --- | --- | --- | --- | --- | --- | --- | --- |
| CCCCCCCCCCCCCCCC(=O)N[C@@H](CCCCN)C(=O)N[C@@H](CCCCN)C(=O)NCC(=O)NCC(=O)NCC(=O)N[C@@H](CCCCN)C(=O)N[C@@H](CCCCN)C(=O)NCC(=O)N[C@@H](CC(C)C)C(=O)N[C@@H](CO)C(=O)N[C@@H](CCCCN)C(=O)NCC(=O)N[C@H]1CSSC[C@@H](C(=O)O)NC(=O)CNC(=O)[C@H](CC(C)C)NC(=O)CNC(=O)[C@H](CO)NC(=O)[C@H](CCC(N)=O)NC(=O)[C@H](CO)NC(=O)CNC(=O)[C@H]([C@@H](C)CC)NC(=O)[C@H](CCCNC(=N)N)NC(=O)[C@H](CC(=O)O)NC(=O)[C@H](CC(C)C)NC(=O)[C@H](CCCCN)NC(=O)[C@H](CC(C)C)NC(=O)CNC(=O)[C@H](Cc2ccccc2)NC1=O [SEQ ID NO: 24] (Palmitoyl-KKGGGKKGLSKGCFGLKLDRIGSQSGLGC-OH; disulfide 13-29; C-terminus assumed) | ≥5 | ≥5 | (1.6) μmol/kg | (1.6) μmol/kg | ≥5 | (1.6) μmol/kg |  |  |  |  |  |
| CCCCCCCCCCCCCCCCCC(=O)N[C@@H](CCCCN)C(=O)N[C@@H](CCCCN)C(=O)N[C@@H](CCCCN)C(=O)N[C@@H](CCCCN)C(=O)NCC(=O)NCC(=O)NCC(=O)NCC(=O)N[C@@H](CC(C)C)C(=O)N[C@@H](CO)C(=O)N[C@@H](CCCCN)C(=O)NCC(=O)N[C@H]1CSSC[C@@H](C(=O)O)NC(=O)CNC(=O)[C@H](CC(C)C)NC(=O)CNC(=O)[C@H](CO)NC(=O)[C@H](CCC(N)=O)NC(=O)[C@H](CO)NC(=O)CNC(=O)[C@H]([C@@H](C)CC)NC(=O)[C@H](CCCNC(=N)N)NC(=O)[C@H](CC(=O)O)NC(=O)[C@H](CC(C)C)NC(=O)[C@H](CCCCN)NC(=O)[C@H](CC(C)C)NC(=O)CNC(=O)[C@H](Cc2ccccc2)NC1=O [SEQ ID NO: 23] (Stearoyl-KKKKGGGGLSKGCFGLKLDRIGSQSGLGC-OH; disulfide 13-29; C-terminus assumed) | ≥1 | ≥1 | (0.31) μmol/kg | (0.31) μmol/kg | ≥3 | (0.94) μmol/kg |  |  |  |  |  |
| CC[C@H](C)[C@@H]1NC(=O)[C@H](CCCNC(=N)N)NC(=O)[C@H](CC(=O)O)NC(=O)[C@H](CCSC)NC(=O)[C@H](CCCNC(=N)N)NC(=O)CNC(=O)CNC(=O)[C@H](Cc2ccccc2)NC(=O)[C@@H](NC(=O)[C@H](CO)NC(=O)[C@H](CO)NC(=O)[C@H](CCCNC(=N)N)NC(=O)[C@H](CCCNC(=N)N)NC(=O)[C@H](CC(C)C)NC(=O)[C@@H](N)CO)CSSC[C@@H](C(=O)N[C@@H](CC(N)=O)C(=O)N[C@@H](CO)C(=O)N[C@@H](Cc2ccccc2)C(=O)N[C@@H](CCCNC(=N)N)C(=O)N[C@@H](Cc2ccc(O)cc2)C(=O)O)NC(=O)CNC(=O)[C@H](CC(C)C)NC(=O)CNC(=O)[C@H](CO)NC(=O)[C@H](CCC(N)=O)NC(=O)[C@H](C)NC(=O)CNC1=O [SEQ ID NO: 44, reference compound] |  |  |  |  |  |  | 26.23 | 14.08 |  |  |  |
| CCCCCCCCCCCCCCCC(=O)NCCOCCOCC(=O)NCCOCCOCC(=O)NCCOCCOCC(=O)N[C@@H](CCCCN)C(=O)N[C@@H](CCCCN)C(=O)O [SEQ ID NO: 7, CH3(CH2)14(C═O)-Aeea-Aeea-Aeea-KK] |  |  |  |  |  |  |  |  | >5 | ≥3 | ≥5 |

Further lines, with some results ahead:

| Lethargy* in n = 3 (Sprague Dawley rats [1]; up to 10 mg/kg) [mg/kg] | Swelling and/or Discoloration in n = 3 (Sprague Dawley rats [1]; up to 10 mg/kg) [mg/kg] | Lethargy* in n = 3 (Sprague Dawley rats [1]; value in parentheses) | Swelling and/or Discoloration in n = 3 (Sprague Dawley rats [1]; value in parentheses) | SMILES | Ataxia** in n = 3 (Sprague Dawley rats [1]; up to 10 mg/kg) [mg/kg] | Ataxia** in n = 3 (Sprague Dawley rats [1]; value in parentheses) | Plasma concentration of cGMP, 2 hr (cGMP; 2 hr) [pmol/mL] | Plasma concentration of cGMP, 6 hr (cGMP; 6 hr) [pmol/mL] | Ataxia** in n = 3 (Sprague Dawley rats [2]; ataxia is bolus dose limiting toxicity) [µmol/kg] | Swelling and/or Discoloration in n = 3 (Sprague Dawley rats [2]; dose at which sign was seen) [µmol/kg] | Lethargy* in n = 3 (Sprague Dawley rats [2]; lethargy is considered maximum tolerated bolus dose) [µmol/kg] |
| --- | --- | --- | --- | --- | --- | --- | --- | --- | --- | --- | --- |
| ≥5 | ≥5 | (1.6) μmol/kg | (1.6) μmol/kg | CCCCCCCCCCCCCCCC(=O)NCC(=O)NCC(=O)NCC(=O)N[C@@H](CCCCN)C(=O)N[C@@H](CCCCN)C(=O)N[C@@H](CCCCN)C(=O)N[C@@H](CCCCN)C(=O)NCC(=O)N[C@@H](CC(C)C)C(=O)N[C@@H](CO)C(=O)N[C@@H](CCCCN)C(=O)NCC(=O)N[C@H]1CSSC[C@@H](C(=O)O)NC(=O)CNC(=O)[C@H](CC(C)C)NC(=O)CNC(=O)[C@H](CO)NC(=O)[C@H](CCC(N)=O)NC(=O)[C@H](CO)NC(=O)CNC(=O)[C@H]([C@@H](C)CC)NC(=O)[C@H](CCCNC(=N)N)NC(=O)[C@H](CC(=O)O)NC(=O)[C@H](CC(C)C)NC(=O)[C@H](CCCCN)NC(=O)[C@H](CC(C)C)NC(=O)CNC(=O)[C@H](Cc2ccccc2)NC1=O [SEQ ID NO: 25] (Palmitoyl-GGGKKKKGLSKGCFGLKLDRIGSQSGLGC-OH; disulfide 13-29; C-terminus assumed) | ≥5 | (1.6) μmol/kg |  |  |  |  |  |
| ≥5 | ≥5 | (1.6) μmol/kg | (1.6) μmol/kg | CCCCCCCCCCCCCCCC(=O)N[C@H](CCCCN)C(=O)N[C@H](CCCCN)C(=O)N[C@H](CCCCN)C(=O)N[C@H](CCCCN)C(=O)NCC(=O)NCC(=O)NCC(=O)NCC(=O)N[C@@H](CC(C)C)C(=O)N[C@@H](CO)C(=O)N[C@@H](CCCCN)C(=O)NCC(=O)N[C@H]1CSSC[C@@H](C(=O)O)NC(=O)CNC(=O)[C@H](CC(C)C)NC(=O)CNC(=O)[C@H](CO)NC(=O)[C@H](CCC(N)=O)NC(=O)[C@H](CO)NC(=O)CNC(=O)[C@H]([C@@H](C)CC)NC(=O)[C@H](CCCNC(=N)N)NC(=O)[C@H](CC(=O)O)NC(=O)[C@H](CC(C)C)NC(=O)[C@H](CCCCN)NC(=O)[C@H](CC(C)C)NC(=O)CNC(=O)[C@H](Cc2ccccc2)NC1=O [SEQ ID NO: 26] (Palmitoyl-[dK][dK][dK][dK]GGGGLSKGCFGLKLDRIGSQSGLGC-OH; disulfide 13-29; C-terminus assumed) | ≥5 | (1.6) μmol/kg |  |  |  |  |  |
| ≥5 | ≥5 | (1.6) μmol/kg | (1.6) μmol/kg | CCCCCC(=O)N[C@@H](CCCCN)C(=O)N[C@@H](CCCCN)C(=O)NCC(=O)NCC(=O)NCC(=O)N[C@@H](CCN)C(=O)N[C@@H](CCN)C(=O)NCC(=O)N[C@@H](CC(C)C)C(=O)N[C@@H](CO)C(=O)N[C@@H](CCCCN)C(=O)NCC(=O)N[C@H]1CSSC[C@@H](C(=O)O)NC(=O)CNC(=O)[C@H](CC(C)C)NC(=O)CNC(=O)[C@H](CO)NC(=O)[C@H](CCC(N)=O)NC(=O)[C@H](CO)NC(=O)CNC(=O)[C@H]([C@@H](C)CC)NC(=O)[C@H](CCCNC(=N)N)NC(=O)[C@H](CC(=O)O)NC(=O)[C@H](CC(C)C)NC(=O)[C@H](CCCCN)NC(=O)[C@H](CC(C)C)NC(=O)CNC(=O)[C@H](Cc2ccccc2)NC1=O [SEQ ID NO: 28] (Hexanoyl-KKGGG[Dab][Dab]GLSKGCFGLKLDRIGSQSGLGC-OH; disulfide 13-29; C-terminus assumed) | ≥5 | (1.6) μmol/kg |  |  |  |  |  |
| ≥5 | ≥5 | (1.6) μmol/kg | (1.6) μmol/kg | CCCCCC(=O)N[C@@H](CCCCN)C(=O)N[C@@H](CCCCN)C(=O)NCC(=O)NCC(=O)NCC(=O)N[C@@H](CCCNC(=N)N)C(=O)N[C@@H](CCCNC(=N)N)C(=O)NCC(=O)N[C@@H](CC(C)C)C(=O)N[C@@H](CO)C(=O)N[C@@H](CCCCN)C(=O)NCC(=O)N[C@H]1CSSC[C@@H](C(=O)O)NC(=O)CNC(=O)[C@H](CC(C)C)NC(=O)CNC(=O)[C@H](CO)NC(=O)[C@H](CCC(N)=O)NC(=O)[C@H](CO)NC(=O)CNC(=O)[C@H]([C@@H](C)CC)NC(=O)[C@H](CCCNC(=N)N)NC(=O)[C@H](CC(=O)O)NC(=O)[C@H](CC(C)C)NC(=O)[C@H](CCCCN)NC(=O)[C@H](CC(C)C)NC(=O)CNC(=O)[C@H](Cc2ccccc2)NC1=O [SEQ ID NO: 27] (Hexanoyl-KKGGGRRGLSKGCFGLKLDRIGSQSGLGC-OH; disulfide 13-29; C-terminus assumed) | ≥5 | (1.6) μmol/kg |  |  |  |  |  |
